The results in this text go back to patent US20190307731A1, “ARYL HYDROCARBON RECEPTOR MODULATOR” (Ariagen, Inc., priority 2016, published 2019).

One may read the EC50 as the concentration giving half of the maximal effect.

Read-outs that look alike come from different tables or passages of the source.

In this assay the target is T1, native (Human Hepatoma Huh-7) AhR receptor (Homo sapiens, UniProt P35869).
T1 construct: expression of native (Human Hepatoma Huh-7) AhR receptor reporter gene cells; endogenous in cells; host or cells: Human hepatoma Huh-7 cells carrying a firefly luciferase reporter vector
T1 sequence (P35869 11-848): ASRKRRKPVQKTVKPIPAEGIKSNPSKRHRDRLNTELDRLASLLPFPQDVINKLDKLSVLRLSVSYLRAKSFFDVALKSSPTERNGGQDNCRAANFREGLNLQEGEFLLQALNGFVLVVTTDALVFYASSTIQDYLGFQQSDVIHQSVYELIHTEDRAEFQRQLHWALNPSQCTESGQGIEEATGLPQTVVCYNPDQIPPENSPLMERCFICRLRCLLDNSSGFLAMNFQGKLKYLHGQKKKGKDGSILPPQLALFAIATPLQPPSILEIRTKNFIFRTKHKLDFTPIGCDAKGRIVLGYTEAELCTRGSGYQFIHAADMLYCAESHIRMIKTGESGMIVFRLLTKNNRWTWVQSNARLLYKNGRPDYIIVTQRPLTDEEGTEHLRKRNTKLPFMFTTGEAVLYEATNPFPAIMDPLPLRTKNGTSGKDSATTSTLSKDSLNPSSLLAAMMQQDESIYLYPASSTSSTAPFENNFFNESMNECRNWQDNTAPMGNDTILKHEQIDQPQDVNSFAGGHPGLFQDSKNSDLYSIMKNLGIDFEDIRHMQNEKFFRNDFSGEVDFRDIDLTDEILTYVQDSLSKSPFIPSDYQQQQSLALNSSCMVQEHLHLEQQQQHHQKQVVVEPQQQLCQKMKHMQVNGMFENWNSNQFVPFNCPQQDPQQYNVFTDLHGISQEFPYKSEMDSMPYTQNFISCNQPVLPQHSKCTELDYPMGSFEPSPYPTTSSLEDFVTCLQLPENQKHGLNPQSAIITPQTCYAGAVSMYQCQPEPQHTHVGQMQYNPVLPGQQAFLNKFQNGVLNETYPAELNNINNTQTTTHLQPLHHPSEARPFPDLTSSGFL
Briefly: AhR agonism assay (luciferase reporter gene cells). Format: cell-based. Here is the method:
Assay Materials (plasmids): expression of native (Human Hepatoma Huh-7) AhR receptor reporter gene cells, the reporter vector includes functional firefly luciferase gene linked to upstream receptor-specific genetic response elements (GRE).
The AhR agonism assay comprises the following three steps:
1. Cell implantation: a suspension of AhR receptor cells was prepared in cell recovery medium (CRM; FBS containing 10% activated carbon). Then, the prepared suspension (100 μl) was dispensed into wells of a white 96-well culture plate.
2. Right before the beginning of the experiment, Master Stocks were diluted to “2× concentration” treatment media with appropriate compound screening media (CSM: FBS containing 10% activated carbon). The test compounds were subjected to gradient dilution with CSM medium containing 0.2% DMSO, so that the final concentration of DMSO in each experimental well for each treatment group was 0.1%. […] The experimental plate was placed in an incubator at 37° C. for 24 h.
3. Fluorescence detection and analysis: after completion of the incubation, the treatment media were discarded and 100 μL/well of luciferase detection reagent was added. The Ave RLU (average relative fluorescence intensity) of each well and the coefficient of variation for each experimental group were determined. The activity of AhR receptor with various concentrations of the test compounds was quantitatively determined using a ratio of Ave RLU^Test Cmpd of various concentrations of the test compounds in the experimental group to Ave RLU^Vehicle of the blank control group, and fold activation and EC50 were determined.
For data processing method, refer to J. Biomol.
Background: In a reporter assay the amount or activity of a reporter protein is the signal.

As for `CC(C)c1ncc(C(=O)c2c[nH]c3ccccc23)s1` [Compound 10], the EC50 (AhR receptor reporter gene cells, 24 h incubation at 37° C., luciferase readout, read-out: EC50) lay within 10 to 100 µM.

Compound `COC(=O)c1nsc(C(=O)c2c[nH]c3ccc(F)cc23)n1` [Compound 13] returned a 50% effective concentration (EC50) of 1 to 10 µM.

With `COC(=O)c1nsc(C(=O)c2c[nH]c3ccc(OC)cc23)n1` [Compound 14], the EC50 is 1 to 10 µM.
